Reference: article PMC11464777, “Approved drugs successfully repurposed against Leishmania based on machine learning predictions” (Frontiers in Cellular and Infection Microbiology, 2024)
Converted amounts (≈) assume the structure as drawn. Read-outs that look alike come from different tables or passages of the source.

Experiments:
[1] = system: L. infantum (LV50 and Drep-14) and L. major (Empa-12) promastigotes; assay: MTT promastigote viability assay, stated across the three strains; format: cell-based, Leishmania infantum, Leishmania major; conditions: 72 h; for Effect on promastigote viability: three strains, at the tested concentrations; for IC50: Leishmania infantum, LV50, Drep-14, Empa-12, MTT, read-out: Promastigotes IC50, span over the three strains
Source text: (§1) Three Tunisian laboratory strains already described ([Oualha et al., 2019]), originally isolated from distinct clinical manifestations were used in this study: (i) L. infantum LV50 MHOM/TN/94/LV50) strain originating from a bone marrow of a visceral leishmaniasis patient, (ii) L. infantum Drep-14 (MHOM/TN/96/Drep-14) strain isolated from a lesion of a sporadic cutaneous leishmaniasis patient and (iii) L. major Empa-12 (MHOM/TN/2012/Empa-12) strain isolated from a zoonotic cutaneous leishmaniasis patient. Stocks of these parasites obtained after passage through BALB/c mice were used as previously described ([Oualha et al., 2019]). Thawed cryopreserved parasites were cultured at 22°C in RPMI-1640/Glutamax medium (Gibco BRL, Germany) containing penicillin (100 U/mL) and streptomycin (100 μg/mL) supplemented with 10% heat-inactivated Fetal Bovine Serum (FBS) (Gibco BRL, Germany).
(§2) The effect of the selected compounds on the viability of Leishmania promastigotes was evaluated by a colorimetric MTT (3-(4,5-dimethylthiazol-2yl)-2,5-diphenyl tetrazolium bromide) assay. It consists in the reduction of tetrazolium salt to a […] crystal (blue formazan) by the succinate dehydrogenase activity of mitochondria in living cells, which can be quantified by spectrophotometry. Briefly, 90 μL of promastigotes (5 × 10^5 parasites/well) harvested from the stationary growth phase of each strain were added to a 96-well culture plate and incubated with 10 μL of a range of serial dilutions of the selected compounds in technical replicates (final concentration of 1% DMSO per well) ([Ioset et al., 2009]; [Harigua-Souiai et al., 2018]). […] After 72h of incubation at 22°C, 25 μl of MTT solution (5 mg/mL) was added to each well and incubated at 22°C for 4h. Then, 150 μl of DMSO was added to each well to dissolve the blue formazan and the optical density (OD) was measured at 570 nm with a microplate reader ([…], Labsystems). Promastigotes incubated in complete medium containing 1% DMSO were used as negative control. The standard anti-Leishmania drug, Amphotericin B was used as a positive control. All experiments were performed in two technical replicates and repeated three times in independent experiments. The mean percentage of promastigotes viability was calculated from the Optical Density at 570 nm as follows:
(§3) Promastigote viability (%)= [(ODcompound− ODblank)/(ODnegative control −ODblank)]*100
(§4) Results were expressed as the mean value of the percentage of promastigotes viability ± standard deviation (SD).

[2] = system: L. infantum Drep-14 intracellular amastigotes; assay: Anti-amastigote assay in THP-1-derived macrophages, L. infantum Drep-14; format: cell-based, Leishmania infantum; conditions: for Selectivity Index (SI): CC50 THP-1 / IC50 amastigotes Drep-14, 72 h; for IC50: Leishmania infantum, Macrophage, Drep-14, intramacrophage, 72 h
Protocol: (§5) THP-1-derived macrophages (5 × 10^4/well) were seeded in each 8-well Labtek slides (Thermo Scientific). Adherent macrophages were obtained as described above, then infected with stationary phase promastigotes of each strain at a ratio 10:1 (10 parasites/macrophage) in RPMI medium containing penicillin (100 U/mL) and streptomycin (100 μg/mL) with 10% fetal bovine serum (Gibco, Brazil) at 37°C in 5% CO2 for 24 h. […] Non-infected control cells were incubated in a supplemented RPMI medium containing 1% DMSO. After 72h of incubation, cells were fixed and stained using May-Grunwald-Giemsa staining with RAL 555 Kit (RAL DIAGNOSTICS, France), following the manufacturer’s instructions. The percentage of infected cells and the total number of internalized parasites per 100 macrophages were determined under immersion oil (magnification of 1000X) using light microscopy. The percentage of amastigotes viability was expressed as the percentage of total number of internalized parasites within treated cells relative to the total number of internalized parasites within control cells treated with 1% DMSO, and calculated as follows:
(§6) Relative amastigote viability (%) = [(number of amastigotes/100 treated cells)/(number of amastigotes/100 treated cells with1% DMSO)] * 100
(§7) The relative percentage of amastigote viability was evaluated to calculate half inhibitory concentrations (IC50). The mean IC50 values were determined by plotting the curves of the logarithm of compound concentrations versus the relative amastigote viability of three independent experiments performed in two technical replicates for each compound fitted into a nonlinear regression model, using GraphPad Prism version 8.0.1. Selectivity Index (SI) values were calculated as the ratio between cytotoxicity and activity against amastigotes and determined for each compound as follows: SI= CC50/IC50.

[3] = system: L. infantum LV50 promastigotes; assay: MTT-based promastigote viability assay, L. infantum LV50; format: cell-based; conditions: Leishmania infantum
Source text: as §1, §2, §3, §4

[4] = system: L. infantum LV50 intracellular amastigotes; assay: Anti-amastigote assay in THP-1-derived macrophages, L. infantum LV50; format: cell-based, Leishmania infantum; conditions: for Selectivity Index (SI): CC50 THP-1 / IC50 amastigotes LV50, 72 h; for IC50: Leishmania infantum, Macrophage, LV50, intramacrophage, 72 h
Protocol: as §5, §6, §7

[5] = system: L. major and L. infantum amastigotes; assay: Anti-amastigote assay, stated across the three strains; format: cell-based, Leishmania infantum, Leishmania major
Protocol: as §5, §6, §7

[6] = system: L. major Empa-12 intracellular amastigotes; assay: Anti-amastigote assay in THP-1-derived macrophages, L. major Empa-12; format: cell-based, Leishmania major; conditions: for Selectivity Index (SI): CC50 THP-1 / IC50 amastigotes Empa-12, 72 h; for IC50: Leishmania major, Macrophage, Empa-12, intramacrophage, 72 h
Protocol: as §5, §6, §7

[7] = system: THP-1-derived macrophages; assay: Cytotoxicity assay towards THP-1-derived macrophages (MTT); format: cell-based, human; conditions: for Cytotoxicity on THP-1-derived macrophages: 24, 48, 72 h
Protocol: (§8) Louis, MO, USA). The PMA-treated THP-1 cells were maintained in this condition for 24 h, followed by a 24 h of rest period after the removal of PMA. […] The cytotoxicity towards THP-1-derived macrophages was assessed after 24, 48 and 72 hours of incubation by MTT assay as described above. […] The percentage of viable cells was calculated from the Optical Density at 570 nm as follows: […]

[8] = as above; format: cell-based, human; conditions: human, THP-1-derived macrophages (PMA-differentiated); for CC50 at 72 h: 72 h of treatment, uninfected cells, MTT; for viability at 72 h, 200 µg/mL: at 200 µg/mL
Protocol: as §8

[9] = system: L. infantum Drep-14 promastigotes; assay: microbe, parasite or virus in culture; format: cell-based; conditions: Leishmania infantum
Source text: as §1, §2, §3, §4

[10] = system: L. major Empa-12 promastigotes; assay: MTT-based promastigote viability assay, L. major Empa-12; format: cell-based; conditions: Leishmania major
Source text: as §1, §2, §3, §4

[11] = system: Leishmania (Viannia) braziliensis; set-up: method as in Cazorla et al., 2004; conditions: hamsters infected with Leishmania (Viannia) braziliensis, versus Glucantime; ref Cazorla et al., 2004; cited from earlier work
[12] = read-out: Amastigotes IC50 (in brackets) (converted)
[13] = LV50, 72 h, MTT, read-out: Promastigotes IC50
[14] = LV50, 72 h, MTT, read-out: Promastigotes IC50 (in brackets) (converted)
[15] = 72 h, LV50, Drep-14, Empa-12; intramacrophage, 72 h; read-out: Amastigotes IC50, span over the three strains
[16] = read-out: THP-1-derived macrophages CC50
[17] = read-out: THP-1-derived macrophages CC50 (in brackets) (converted)
[18] = 72 h, read-out: Promastigotes IC50
[19] = 72 h, read-out: Promastigotes IC50 (in brackets)
[20] = Empa-12, 72 h, MTT, read-out: Promastigotes IC50
[21] = Empa-12, 72 h, MTT, read-out: Promastigotes IC50 (in brackets) (converted)

Compound | Effect on promastigote viability [1] | Selectivity Index (SI) [2] | IC50 ([2]; read-out: Amastigotes IC50) [µg/mL] | IC50 [2, 12] [µM] | IC50 [3, 13] [µg/mL] | IC50 [3, 14] [µM] | IC50 [1] [µg/mL] | Selectivity Index (SI) [4] | IC50 ([4]; read-out: Amastigotes IC50) [µg/mL] | IC50 [4, 12] [µM] | Selectivity Index (SI) [6] | IC50 ([6]; read-out: Amastigotes IC50) [µg/mL] | IC50 [6, 12] [µM] | Cytotoxicity on THP-1-derived macrophages [7] | CC50 at 72 h [8, 16] [µg/mL] | CC50 at 72 h [8, 17] [µM] | IC50 [9, 18] [µg/mL] | IC50 [9, 19] [µM] | IC50 [10, 20] [µg/mL] | IC50 [10, 21] [µM] | further results
CCCSc1ccc2nc(NC(=O)OC)[nH]c2c1 [Albendazole] | no effectiveness |  |  |  |  |  |  |  |  |  |  |  |  |  |  |  |  |  |  |  | 
Nc1nc(O)c2ncn(COC(CO)CO)c2n1 [Ganciclovir] | no effectiveness |  |  |  |  |  |  |  |  |  |  |  |  |  |  |  |  |  |  |  | 
CCc1cc(C(N)=S)ccn1 [Ethionamide] | no effectiveness |  |  |  |  |  |  |  |  |  |  |  |  |  |  |  |  |  |  |  | 
CCCNC(C)C(=O)Nc1ccccc1C (stereo not drawn) [Prilocaine] | dose-dependent decrease of parasite viability | > 13.14 | 30.4 ± 2.3 | 138 | 45.8 ± 2.46 | 208 | 33.1 to 45.8 (≈ 150 to 208 µM) | > 15.25 | 26.2 ± 3.14 | 119 | > 13.02 | 30.7 ± 2.2 | 139 | no significant cytotoxicity | > 200 | > 1820 | 34.8 ± 3.22 | 158 | 33.1 ± 2.3 | 150 | IC50 [5, 15]: 13.8 to 66.8 µg/mL (≈ 62.8 to 303 µM); Concentration at which cytotoxic effects start ([7]; 72 h of incubation): 400 µg/mL; viability at 72 h, 200 µg/mL ([8]; read-out: Macrophage viability): 90 to 100%; viability ([8]; at the IC50 value on the promastigotes, read-out: Macrophage viability): 90 to 100%
CNC[C@H](O)c1cccc(O)c1 [Phenylephrine] | dose-dependent decrease of parasite viability | > 4.96 | 40.2 ± 3.15 | 241 ± 113 | > 200 | > 1200 | > 200 | > 5.68 | 35.2 ± 4.86 | 211 ± 174 | > 2.99 | 66.8 ± 7.28 | 400 ± 260 | no significant cytotoxicity | > 200 | > 1200 | > 200 | > 1200 | > 200 | > 1200 | IC50 ([3]; LV50, extrapolated beyond tested range (200 µg/mL), GraphPad, read-out: Promastigotes IC50 estimated through extrapolation): 219 ± 25.5 µg/mL; viability at 72 h, 200 µg/mL ([8]; read-out: Macrophage viability): 90 to 100%; IC50 ([9]; read-out: Promastigotes IC50 estimated through extrapolation): 275 ± 36.6 µg/mL; IC50 ([10]; Empa-12, extrapolated beyond tested range (200 µg/mL), GraphPad, read-out: Promastigotes IC50 estimated through extrapolation): 266 ± 79.5 µg/mL
NS(=O)(=O)c1cc2c(cc1Cl)N=C(CSCc1ccccc1)NS2(=O)=O [Benzthiazide] | no effectiveness |  |  |  |  |  |  |  |  |  |  |  |  |  |  |  |  |  |  |  | 
CCN(CC)CCOC(=O)c1ccc(N)cc1 [Procaine] |  |  |  |  |  |  |  |  |  |  |  |  |  |  |  |  |  |  |  |  | Efficacy of intralesional treatment in hamsters [11]: lower efficacy
C[C@@H]1[C@H](O)[C@@H](C)/C=C/C=C/C=C/C=C/C=C/C=C/C=C/[C@H](O[C@@H]2O[C@H](C)[C@@H](O)[C@H](N)[C@@H]2O)C[C@@H]2O[C@](O)(C[C@@H](O)C[C@@H](O)[C@H](O)CC[C@@H](O)C[C@@H](O)CC(=O)O[C@H]1C)C[C@H](O)[C@H]2C(=O)O [Amphotericin B] |  | > 125.00 | 0.04 ± 0.006 | 0.043 | 0.15 ± 0.01 | 0.16 | 0.15 to 0.2 (≈ 0.162 to 0.216 µM) | > 166.66 | 0.03 ± 0.004 | 0.032 | > 100.00 | 0.05 ± 0.005 | 0.054 | no cytotoxic effect | > 5 | > 5.41 | 0.2 ± 0.004 | 0.22 | 0.2 ± 0.01 | 0.22 | IC50 ([5]; LV50, Drep-14, Empa-12; intramacrophage, 72 h; read-out: Amastigotes IC50, span over the three strains): 0.03 to 0.05 µg/mL (≈ 0.0325 to 0.0541 µM)
CCCC(=O)Nc1ccc(OCC(O)CNC(C)C)c(C(C)=O)c1 (stereo not drawn) [Acebutolol] | dose-dependent decrease of parasite viability | > 14.45 | 13.8 ± 1.41 | 37.1 | 146 ± 16.4 | 390 | 69.3 to 146 (≈ 206 to 433 µM) | > 12.73 | 15.7 ± 2.75 | 42.1 | > 8.98 | 22.3 ± 1.59 | 59.8 | no significant cytotoxicity | > 200 | > 536 | 69.3 ± 5.7 | 186 | 103 ± 10.9 | 276 | IC50 [5, 15]: 13.8 to 66.8 µg/mL (≈ 41.1 to 199 µM); viability at 72 h, 200 µg/mL ([8]; read-out: Macrophage viability): 90 to 100%
C=C(CC)C(=O)c1ccc(OCC(=O)O)c(Cl)c1Cl [Ethacrynic acid] | no effectiveness |  |  |  |  |  |  |  |  |  |  |  |  |  |  |  |  |  |  |  | 
